Assay results reported in patent publication US20110097741A1, “PARTIAL T1R2 NUCLEIC ACID SEQUENCE, RECEPTOR PROTEIN AND ITS USE IN SCREENING ASSAYS” (priority 2006, published 2011).

Experiments:
[1] = tested on: host cells expressing only the G16gust44 chimeric G-protein; test: Fluo-4 calcium assay in negative control cells expressing G16gust44 only; assay type: cell-based, human
Experimental: As a negative control, mock transfected cells were exposed to the same concentration of ligand and the concentration of calcium traces not corresponding to a signal was determined.
As a result of said evalution, it was determined that when these cell lines are exposed to perillartine, many of cell clones respond to this stimulus with a significant increase in fluorescence which is greater than 10-times of the signal compared to the signal of the negative control (cells that express solely G16gust44 promiscuous G-protein but not T1R2-TMD).
The signals elicited by the test agents in cells that stably express G16gust44 and T1R2-TMD containing cells (formed as described in example 3) were compared to the signals obtained in cells that stably express G16gust44 and the T1R2/T1R3 heterodimer (formed as described in example 4), and as a negative control, cells that stably express G16gust44 were used.

T1R2-TMD = target: T1, T1R2-TMD (Homo sapiens, UniProt Q8TE23); test: Fluo-4 calcium assay in HEK293 cells stably expressing G16gust44 and T1R2-TMD; assay type: cell-based
T1 construct: first 45 amino acids of rat somatostatin type 3 receptor plus linker) (N); expressed in transfected cells; host or cells: HEK-293-T-Rex based cell line stably expressing G16gust44
T1 sequence (Q8TE23 564-839): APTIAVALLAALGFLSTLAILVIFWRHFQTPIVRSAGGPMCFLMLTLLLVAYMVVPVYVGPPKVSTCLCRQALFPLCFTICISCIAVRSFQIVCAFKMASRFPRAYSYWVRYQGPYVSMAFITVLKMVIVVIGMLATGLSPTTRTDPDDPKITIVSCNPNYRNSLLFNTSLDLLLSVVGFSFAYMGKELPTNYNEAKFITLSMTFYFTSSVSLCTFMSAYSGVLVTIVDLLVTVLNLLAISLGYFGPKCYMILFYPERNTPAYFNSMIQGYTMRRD
Description: (§1) All examples use the human receptors.
Fluo-4 is a fluorescent indicator for intracellular calcium and allows to determine changes in the calcium concentration, in particular an increase in response to receptor activation occurring after ligand addition (for example perillartine or methyl chavicol).
HEK293 cells stably expressing G alpha 16 gustducin 44 and transfected with T1R2-TMD as described in example 3 were used as host cells.
Black, clear-bottom 96-well plates were used for all assays. They were seeded the day before with 8500 transfected cells per well and maintained at 37° C. overnight in a growth medium appropriate for the cells used. For HEK293 cells, Dulbecco's Modified Eagle medium containing high glucose, L-glutamine, pyroxidine hydrochloride, and supplemented with 10% fetal bovine serum was used for growth and maintenance of the HEK293 cells.
(§2) At the time of the assay, the growth medium was discarded and cells were incubated for 1 hour (at 37° C. in the dark) with 50 μl of a calcium assay solution consisting of 1.5 μM Fluo-4 AM (Molecular Probes™, Invitrogen, US) and 2.5 μM probenicid (Sigma-Aldrich) dissolved in a C1 buffer solution. C1 buffer solution contains 130 mM NaCl, 5 mM KCl, 10 mM Hepes, 2 mM CaCl2 and 10 mM glucose (pH 7.4).
After the initial 1 hour loading period, the plates were washed 5 times with 100 μl per well of C1 buffer using an automated plate washer (BioTek) and after washing, the plate was further incubated for 30 minutes at room temperature in the dark to allow for complete de-esterification of the Fluo-4-AM. […]
(§3) For assay reading, the plate was placed in a FLIPR (fluorescence imaging plate reader (FLIPR-Tetra, Molecular Devices)), and receptor activation was initiated following addition of 20 μl of a 10× concentrated ligand stock solution.
(§4) Fluorescence was continuously monitored for 15 seconds prior to ligand addition and for 105 seconds after ligand addition (45-105 sec may be sufficient). […]
(§5) Fluorescence Increase=Maximum Fluorescence−baseline fluorescence,
wherein the baseline fluorescence represents the mean fluorescence calculated for the first 10 to 15 seconds prior to ligand addition.
As a negative control, mock transfected cells were exposed to the same concentration of ligand and the concentration of calcium traces not corresponding to a signal was determined. […]
The data was calculated as described in example 1 and illustrated the net increase in fluorescence over baseline following stimulation of the cells with 50 μM perillartine. […]
HEK293T cells that stably express G16gust44 and T1R2-TMD (formed as described in example 3) are loaded with the calcium dye Fluo-4, and their response to perillartine is measured by using fluorescent calcium signals as described in example 1. […]

T1R2/T1R3 heterodimer = target: T2, T1R2/T1R3 heterodimer (Homo sapiens, UniProt Q8TE23); test: Fluo-4 calcium assay in cells stably expressing G16gust44 and the T1R2/T1R3 heterodimer; assay type: cell-based; conditions: 4-parameter logistic fit
T2 construct: expressed in transfected cells; host or cells: HEK-293-T-Rex based cell line stably expressing G16gust44
T2 sequence (Q8TE23 20-839): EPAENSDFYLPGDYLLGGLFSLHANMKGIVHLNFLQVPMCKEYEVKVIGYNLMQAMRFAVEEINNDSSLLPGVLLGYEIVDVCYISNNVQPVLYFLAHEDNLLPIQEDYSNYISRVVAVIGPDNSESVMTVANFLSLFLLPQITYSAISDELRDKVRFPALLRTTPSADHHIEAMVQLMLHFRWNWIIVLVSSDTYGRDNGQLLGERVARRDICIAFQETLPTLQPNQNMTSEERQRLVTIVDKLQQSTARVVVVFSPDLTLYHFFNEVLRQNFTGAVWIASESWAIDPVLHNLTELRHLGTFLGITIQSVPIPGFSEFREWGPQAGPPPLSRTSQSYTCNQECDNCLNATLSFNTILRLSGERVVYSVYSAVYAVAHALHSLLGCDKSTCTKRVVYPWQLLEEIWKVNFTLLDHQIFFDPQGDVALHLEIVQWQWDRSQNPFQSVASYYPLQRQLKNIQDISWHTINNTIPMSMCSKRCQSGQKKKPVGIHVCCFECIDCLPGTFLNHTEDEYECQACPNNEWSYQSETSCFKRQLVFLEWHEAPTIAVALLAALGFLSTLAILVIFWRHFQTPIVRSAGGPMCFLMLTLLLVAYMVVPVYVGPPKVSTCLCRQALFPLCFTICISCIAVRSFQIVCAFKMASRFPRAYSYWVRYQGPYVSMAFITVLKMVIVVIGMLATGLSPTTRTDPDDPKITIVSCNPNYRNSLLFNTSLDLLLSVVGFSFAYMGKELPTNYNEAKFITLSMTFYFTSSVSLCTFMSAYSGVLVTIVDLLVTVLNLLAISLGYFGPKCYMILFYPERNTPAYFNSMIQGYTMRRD
T2 sequence (Q7RTX0 21-852 C757R partner): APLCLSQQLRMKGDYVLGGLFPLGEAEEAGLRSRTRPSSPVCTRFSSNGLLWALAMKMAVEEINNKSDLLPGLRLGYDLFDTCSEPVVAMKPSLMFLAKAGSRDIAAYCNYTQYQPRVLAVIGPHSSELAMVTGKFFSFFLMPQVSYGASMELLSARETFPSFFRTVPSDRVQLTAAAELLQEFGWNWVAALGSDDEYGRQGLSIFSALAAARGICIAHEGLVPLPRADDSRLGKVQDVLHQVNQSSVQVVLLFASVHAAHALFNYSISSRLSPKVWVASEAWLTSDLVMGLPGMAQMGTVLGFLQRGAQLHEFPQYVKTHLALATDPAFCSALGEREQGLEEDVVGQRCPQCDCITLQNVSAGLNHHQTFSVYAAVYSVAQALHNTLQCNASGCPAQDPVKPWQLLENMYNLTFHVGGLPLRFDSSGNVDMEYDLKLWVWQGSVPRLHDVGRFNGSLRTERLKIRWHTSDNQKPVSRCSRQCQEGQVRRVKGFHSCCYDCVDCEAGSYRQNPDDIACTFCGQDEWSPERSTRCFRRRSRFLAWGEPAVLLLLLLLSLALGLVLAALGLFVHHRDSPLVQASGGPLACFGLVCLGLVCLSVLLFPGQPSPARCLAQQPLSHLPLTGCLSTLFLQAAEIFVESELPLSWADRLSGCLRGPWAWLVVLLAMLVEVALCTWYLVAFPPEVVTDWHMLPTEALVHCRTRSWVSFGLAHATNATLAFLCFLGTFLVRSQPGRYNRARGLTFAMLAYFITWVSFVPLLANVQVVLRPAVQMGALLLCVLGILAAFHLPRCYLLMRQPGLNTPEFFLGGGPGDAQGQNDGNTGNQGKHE
Experimental: as §1
as §2, with “7.4). […]” for “7.4).”
as §3, §4, §5
wherein the baseline fluorescence represents the mean fluorescence calculated for the first 10 to 15 seconds prior to ligand addition. […]
Resistant colonies were expanded, and identified as containing the T1R2/T1R3 sweet heterodimer by their response to various sweetener compounds including sucrose, sucralose, aspartame and acesulfame K, which was determined via automated fluorimetric imaging on the FLIPR-Tetra instrumentation (Molecular Devices) using the methods described in example 1. […]

**Q.** For C=CCc1ccc(OC)cc1 [Methyl chavicol], which “Negative control [RFU]” value ([1]; 100 micromolar, cells stably expressing G16gust44 only, average of two replicates) is on record?
**A.** 732.195 RFU

**Q.** Which “calcium signaling upon stimulation” value (T1R2-TMD; 50 μM, cells stably expressing human T1R2-TMD, not in negative control) does the source give for C=C(C)[C@@H]1CC=C(/C=N/O)CC1 [perillartine] here?
**A.** Significant increases

**Q.** What about the “AVERAGE [RFU] (net increase in fluorescence over baseline)” value (T1R2-TMD; T1R2-TMD/G16gust44 cells, 50 μM perillartine, no tetracycline induction) of the same molecule?
**A.** 973.06 RFU

**Q.** What about the EC50 (T1R2-TMD; T1R2-TMD, 4-parameter logistic fit, doses 0.1 to 200 micromolar) of the same molecule?
**A.** 6.2 µM

**Q.** What about the “increase in fluorescence, signal compared to the signal of the negative control” value (T1R2-TMD; many cell clones, 50 μM perillartine, absence of tetracycline induction, vs cells expressing solely G16gust44) of the same molecule?
**A.** greater than 10 times

**Q.** What about the EC50 (T1R2/T1R3 heterodimer) of the same molecule?
**A.** 3.5 µM

**Q.** And the “AVERAGE [RFU] (net increase in fluorescence over baseline)” value ([1]; G16gust44 ONLY (neg. control) cells, 50 μM perillartine)?
**A.** 73.78 RFU
